Measured values from patent publication US20170320837A1, “METHOD FOR TREATING INFLAMMATORY DISORDERS” (Synta Pharmaceuticals Corp., priority 2006, published 2017).
Entries after “also recorded” stand apart in the source; their conditions may differ.

Tests used:
glucocorticoid receptor [1] = test: Glucocorticoid receptor levels in PBMCs of rats after four days of intravenous dosing, immunoblot; format: in vivo, Sprague-Dawley (SD) rats
Experimental: The test compounds were administered daily intravenously via tail vein for four days. […] All rats were sacrificed at the study day 5. About 1-2 mL of blood samples were collected per animal. The blood samples were then pulled together as a group for PBMC isolation.

GR (human recombinant) = molecular target: T1, GR (human recombinant) (Homo sapiens, UniProt P04150); test: GR competitive assay, fluorescence polarization with Fluormone GS1; format: binding; settings: tested up to 10 uM
T1 construct: purchased Invitrogen P2816
T1 sequence (P04150 1-777): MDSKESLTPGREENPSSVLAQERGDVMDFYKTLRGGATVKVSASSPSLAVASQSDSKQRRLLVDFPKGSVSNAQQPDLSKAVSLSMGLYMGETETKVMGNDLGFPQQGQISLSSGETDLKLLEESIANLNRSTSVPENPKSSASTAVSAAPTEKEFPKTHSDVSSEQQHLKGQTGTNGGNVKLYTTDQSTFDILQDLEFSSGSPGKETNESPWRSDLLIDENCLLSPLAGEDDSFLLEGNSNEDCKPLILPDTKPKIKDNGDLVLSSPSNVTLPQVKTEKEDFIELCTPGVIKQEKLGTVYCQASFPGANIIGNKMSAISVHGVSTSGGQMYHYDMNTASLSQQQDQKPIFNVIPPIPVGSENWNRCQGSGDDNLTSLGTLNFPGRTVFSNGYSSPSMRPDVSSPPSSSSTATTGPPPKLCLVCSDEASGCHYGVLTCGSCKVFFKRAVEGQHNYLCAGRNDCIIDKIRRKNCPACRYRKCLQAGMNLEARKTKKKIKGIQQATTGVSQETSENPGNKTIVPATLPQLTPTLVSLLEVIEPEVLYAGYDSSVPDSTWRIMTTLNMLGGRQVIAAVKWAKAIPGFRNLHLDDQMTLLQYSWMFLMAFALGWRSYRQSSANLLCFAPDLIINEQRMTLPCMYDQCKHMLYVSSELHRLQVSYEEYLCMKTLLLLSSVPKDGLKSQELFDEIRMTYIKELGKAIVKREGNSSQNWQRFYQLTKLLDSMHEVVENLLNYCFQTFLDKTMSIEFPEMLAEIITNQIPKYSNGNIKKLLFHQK
Experimental: To determine whether the compounds of the invention bind directly to the glucocorticoid receptor, GR competitive assay was performed using a kit from Invitrogen (Cat #P2816). GR (human recombinant) was added to a fluorescent glucocorticoid (Fluormone™ GS1) ligand with a test compound at various concentrations (a serial dilution of the test compound was done on a 96-well plate) and incubated for 2-4 hours in the dark. […] The shift in polarization value in the presence of a test compound was used to determine relative affinity of test compounds for glucocorticoid receptors. The buffer plus Fluormone™ GS1 and glucocorticoid receptor in the absent of s test compound was used as negative control presenting 0% competition. […] The IC50 was calculated based on the inhibition rate of binding activity of the testing compound.

glucocorticoid receptor [2] = test: Glucocorticoid receptor levels in rat PBMCs, immunoblot; format: cell-based; settings: rat PBMCs, 0, 1, 5, 25, or 100 nM, 16 hours
Experimental: (§1) The whole blood samples from healthy human volunteer and male SD rat were collected and the PBMCs were isolated immediately as follows. 5 ml of whole blood was diluted with an equal volume of sterile 1× PBS. The diluted blood was overlayed carefully into a sterile centrifuge tube without disturbing the bottom layer that containing 5 ml of Ficoll-paque plus density gradient solution. The layered blood was centrifuged at 1500×g for 30 minutes at room temperature. The middle thin layer containing PBMCs was carefully removed, transferred to another sterile centrifuge tube, and washed twice with PBS to remove […]. Isolated rat and human PBMCs were cultured in 10% fetal bovine serum/DMEM.
(§2) The rat and human PBMCs were treated with DMSO (control), Compound 226, Compound 287, or 17-DMAG at concentrations of 0, 1, 5, 25, or 100 nM (in DMSO) for 16 hours. The cells were then collected and rinsed in ice-cold PBS and stored in liquid nitrogen until further analysis.
(§3) PBMC were prepared in Western lysis buffer (10 mmol/L HEPES, 42 mmol/L KCl, 5 mmol/L MgCl2, 0.1 mmol/L EDTA, 0.1 mmol/L EGTA, 1 mmol/L DTT, 1% Triton X-100, freshly supplemented with 1× protease inhibitor cocktail from Pierce, Rockford, Ill.). Lysate protein concentrations were quantified by bicinchoninic acid assay (Pierce) and normalized. Equal amounts of protein were loaded onto 10% NuPAGE Bis-Tris Gels (Invitrogen) and subsequently transferred onto polyvinylidene difluoride membranes. The membranes were blocked in 5% milk in TBST. Primary antibody of glucocorticod receptor from Santa Cruz Biotechnology, Inc. was added and incubated at room temperature for 1 hour with shaking. The blots were washed extensively in TBST before secondary antibodies were added for overnight incubation at 4° C. with gentle shaking. The blots were again washed extensively and developed with SuperSignal West Femto substrate (Pierce). The immunoblot analysis was performed to measure the level of total GRs by Quantity One software from Bio-Rad.

glucocorticoid receptors = molecular target: T2, glucocorticoid receptors (Homo sapiens, UniProt P04150); test: Competitive binding assay with tritium labeled dexamethason in Hela S3 cells (legend of FIG. 3)
T2 construct: endogenous in cells; host or cells: HeLa S3
T2 sequence (P04150 1-777): T1 sequence (P04150 1-777)

human PBMCs = test: Production of inflammatory cytokines in stimulated human PBMCs; format: cell-based; settings: IFN-γ primed PBMCs stimulated with LPS or SAC, 16-18 hrs
Experimental: Human PBMC were isolated using Ficoll 400 and diatrizoate sodium (density 1.077 g/ml) solution and purified with RosetteSep (StemCell Technologies). The PBMCs were primed with human IFN-γ (800 U/ml, Pierce Biotechnology #R-IFNG-50), seeded at 0.5×10^6/100 μL/well in 96-well U-bottom plate with culture medium (RPMI 1640, 10% FBS, 1% Pen/Strep), and incubated in 37° C. for overnight. […] About 180 ul/well of supernatant was collected and measured using ELISA kit or Bio-plex (Bio-Rad) to determine the levels of cytokine production. The cell survival was determined using Cell Counting Kit-8 (Dojindo Molecular Technologies, Inc.). […]

glucocorticoid receptor [3] = test: Glucocorticoid receptor levels in human PBMCs, renal cells and cancer cell lines, immunoblot (Example 115); format: cell-based
Experimental: Normal human renal proximal tubule epithelial cells and tumor cell lines of MV-4-11, Kasumi-1, and Hela were obtained from Cambrex Bioproducts and American Type Culture Collection, respectively. Cells were cultured with 10% fetal bovine serum/DMEM.
The whole blood samples from healthy human volunteer were collected and the PBMCs were isolated immediately as described in Example 116. Isolated human PBMCs were cultured in 10% fetal bovine serum/DMEM.
as §2, with “Human PBMCs, kasumi-1, My-4-11, Hela,” for “The rat”, “renal proximal tubule epithelial cells” for “PBMCs”, “287,” for “287, or”, “0,” for “0, 1,”
as §3, with “PBMC, renal and tumor cell pellets” for “PBMC”, “0.1. mmol/LEGTA,” for “0.1 mmol/L EGTA,”, “glucocorticoid” for “glucocorticod”, “(Pierce).” for “(Pierce). The immunoblot analysis was performed to measure the level of total GRs by Quantity One software from Bio-Rad.”

glucocorticoid receptor [4] = test: Glucocorticoid receptor levels in human PBMCs, immunoblot (Example 114); format: cell-based; settings: human PBMCs, 0, 1, 5, 25, or 100 nM, 16 hours
Experimental: as §1, §2, §3

With CC(C)c1cc(-c2nnc(O)n2-c2ccc3c(ccn3C)c2)c(O)cc1O [Compound 226, 3-(2,4-dihydroxy-5-isopropyl-phenyl)-4-(1-methyl-indol-5-yl)-5-hydroxy-[1,2,4]triazole] the “size of the decrease of GR expression compared with the other treatments” value (glucocorticoid receptor [1]; 50 mg/kg daily intravenously for four days) was “most significant”, the “expression of glucocorticoid receptor (GR) in isolated PBMC compared with vehicle” value (glucocorticoid receptor [1]; daily intravenously for four days, 17-DMAG 6 mg/kg, Paclitaxel 5 mg/kg, Compound 264 80 mg/kg, Compound 226 50 mg/kg) was “decreased” and the IC50 (GR (human recombinant)) was greater than 10 µM. For the same compound, the “expression of glucocorticoid receptors” value (glucocorticoid receptor [2]) was “dose dependent decrease; also recorded: decreased the expression of glucocorticoid receptor in a dose dependent manner”, the “displacement of tritium labeled dexamethason” value (glucocorticoid receptors) was “did not displace the tritium labeled dexamethason” and the “inhibition of the production of proinflammatory cytokines” value (human PBMCs) was “more broadly inhibits the production of proinflammatory cytokines than dexamethasone or 17-DMAG”. For the same compound, the “suppression of glucocorticoid receptors, cancer cells compared with normal cells” value (glucocorticoid receptor [3]) was “more pronounced in cancer cell than in normal cells”, the “expression of glucocorticoid receptors” value (glucocorticoid receptor [3]; HeLa cells, 0, 5, 25, or 100 nM, 16 hrs) was “dose dependent decrease” and the “expression of glucocorticoid receptors” value (glucocorticoid receptor [3]; Kasumi-1 AML cancer cells, 0, 5, 25, or 100 nM, 16 hrs) was “dose dependent decrease”. The “expression of glucocorticoid receptors” value (glucocorticoid receptor [3]; MV-4-11 AML cancer cells, 0, 5, 25, or 100 nM, 16 hrs) was “dose dependent decrease”, the “expression of glucocorticoid receptors” value (glucocorticoid receptor [3]; cancer cells as well as normal PBMCs and renal cells) was “suppress the expression of glucocorticoid receptors” and the “expression of glucocorticoid receptors” value (glucocorticoid receptor [3]; human PBMCs, 0, 5, 25, or 100 nM, 16 hrs) was “dose dependent decrease”. For the same compound, the “expression of glucocorticoid receptors” value (glucocorticoid receptor [3]; human renal cells, 0, 5, 25, or 100 nM, 16 hrs) was “dose dependent decrease” and the “expression of glucocorticoid receptors” value (glucocorticoid receptor [4]) was “dose dependent decrease; also recorded: decreased the expression of glucocorticoid receptor in a dose dependent manner”.
